Reference: patent publication US8916702B2 (priority 2012, dated 2014)

Tested on: HCV pseudoparticles (genotype 1a HCV E1 and E2 envelope, H77C isolate)
Test: microbe, parasite or virus in culture
Assay type: cell-based
Conditions: Hepatitis C virus, Huh-7, 48 h, HCV pseudoparticle infection of Huh7 cells, luciferase 2 days after infection; average of duplicates

Row | SMILES | EC50
1 | COC(=O)[C@H](CNC(=O)C(=O)NCc1c(F)cccc1F)NC(=O)c1ccc(Nc2nc(NC3(c4ccc(Cl)cc4)CC3)nc(OCC(F)(F)F)n2)cc1 [Compound 1135] | 1.92 nM

Same assay, conditions: Hepatitis C virus, Huh-7, 48 h, HCV pseudoparticles (genotype 1a, H77C) in Huh7 cells; average of duplicate; luciferase 2 days after infection

Row | SMILES | EC50
2 | CN(CCCNC(=O)c1ccc(Nc2nc(NC3(c4ccc(Cl)cc4)CC3)nc(OCC(F)(F)F)n2)cc1)C(=O)C(=O)Nc1ccc(F)cc1 [Compound 3448] | 0.059 nM
3 | CCOc1ccc(NC(=O)C(=O)NC[C@H](NC(=O)c2ccc(Nc3nc(NC4(c5ccc(Cl)cc5)CC4)nc(OCC(F)(F)F)n3)cc2)C(=O)OC)cc1 [Compound 3210] | 0.75 nM

Same assay, conditions: Hepatitis C virus, Huh-7, 48 h, HCV pseudoparticles, Huh7 cells, luciferase 2 days after infection; average of duplicates

Row | SMILES | EC50
4 | COC(=O)[C@H](CNC(=O)C(=O)Nc1cccc(Oc2cccnc2)c1)NC(=O)c1ccc(Nc2nc(NC3(c4ccc(Cl)cc4)CC3)nc(OCC(F)(F)F)n2)cc1 [Compound 3737] | 1.63 nM
5 | Cc1ccc(NC(=O)C(=O)NCC(C)(C)CNC(=O)c2ccc(Nc3nc(NC4(c5ccc(Cl)cc5)CC4)nc(OCC(F)(F)F)n3)cc2F)c(Cl)c1 [Compound 3664] | 0.038 nM

Same assay, conditions: Hepatitis C virus, Huh-7, 48 h, read-out: Activity (EC50 class), HCV pseudoparticle infection of Huh7 cells, luciferase 2 days after infection; EC50 expressed as class A/B

Row | SMILES | EC50
6 | COC(=O)[C@H](CCNC(=O)C(=O)NCC1(C2CCCCC2)CC1)NC(=O)c1ccc(Nc2nc(NC3(c4ccc(Cl)cc4)CC3)nc(OCC(F)(F)F)n2)cc1 [Compound 1203] | 0.01 to 10 nM
7 | COc1cccc(CCNC(=O)C(=O)NCC[C@H](NC(=O)c2ccc(Nc3nc(NC4(c5ccc(Cl)cc5)CC4)nc(OCC(F)(F)F)n3)cc2)C(=O)O)c1 [Compound 1330] | 0.01 to 10 nM
8 | COC(=O)C(CNC(=O)C(=O)NC1CCCC(NC(=O)OC(C)(C)C)C1)NC(=O)c1ccc(Nc2nc(NC3(c4ccc(Cl)cc4)CC3)nc(OCC(F)(F)F)n2)cc1 (stereo not drawn) [Compound 1053] | 0.01 to 10 nM
9 | CC(C)OC(=O)[C@H](CNC(=O)C(=O)N(C)C)NC(=O)c1ccc(Nc2nc(NC3(c4ccc(Cl)cc4)CC3)nc(OCC(F)(F)F)n2)cc1 [Compound 1021, (S)-isopropyl 2-(4-(4-(1-(4-chlorophenyl)cyclopropylamino)-6-(2,2,2-trifluoroethoxy)-1,3,5-triazin-2-ylamino)benzamido)-3-(2-(dimethylamino)-2-oxoacetamido)propanoate] | 0.01 to 10 nM
10 | COC(=O)[C@H](CNC(=O)C(=O)NCc1c(F)cccc1F)NC(=O)c1ccc(Nc2nc(NC3(c4ccc(Cl)cc4)CC3)nc(OCC(F)(F)F)n2)cc1 [Compound 1135] | 0.01 to 10 nM
11 | COC(=O)[C@H](CCNC(=O)C(=O)NC(CCO)C1CC1)NC(=O)c1ccc(Nc2nc(NC3(c4ccc(Cl)cc4)CC3)nc(OCC(F)(F)F)n2)cc1 (stereo partly drawn) [Compound 1391] | 0.01 to 10 nM
12 | O=C(NCCc1ccccc1F)C(=O)NCC[C@H](NC(=O)c1ccc(Nc2nc(NC3(c4ccc(Cl)cc4)CC3)nc(OCC(F)(F)F)n2)cc1)C(=O)O [Compound 1334] | 0.01 to 10 nM
13 | COC(=O)[C@H](CNC(=O)C(=O)NC1Cc2ccccc2C1)NC(=O)c1ccc(Nc2nc(NC3(c4ccc(Cl)cc4)CC3)nc(OCC(F)(F)F)n2)cc1 [Compound 1291] | 0.01 to 10 nM
14 | COC(=O)[C@H](CNC(=O)C(=O)N[C@H]1C[C@H]1c1ccccc1)NC(=O)c1ccc(Nc2nc(NC3(c4ccc(Cl)cc4)CC3)nc(OCC(F)(F)F)n2)cc1 [Compound 1294] | 0.01 to 10 nM
15 | O=C(NC[C@H](NC(=O)c1ccc(Nc2nc(NC3(c4ccc(Cl)cc4)CC3)nc(OCC(F)(F)F)n2)cc1)C(=O)O)C(=O)NC1CCCCCCC1 [Compound 1096] | 0.01 to 10 nM
16 | COc1ccc(CNC(=O)C(=O)NCC[C@H](NC(=O)c2ccc(Nc3nc(NC4(c5ccc(Cl)cc5)CC4)nc(OCC(F)(F)F)n3)cc2)C(=O)O)cc1 [Compound 1186] | 0.01 to 10 nM
17 | COC(=O)[C@H](CCNC(=O)C(=O)NCCc1ccccc1F)NC(=O)c1ccc(Nc2nc(NC3(c4ccc(Cl)cc4)CC3)nc(OCC(F)(F)F)n2)cc1 [Compound 1313] | 0.01 to 10 nM
18 | O=C(NCCc1cccc(F)c1)C(=O)NC[C@H](NC(=O)c1ccc(Nc2nc(NC3(c4ccc(Cl)cc4)CC3)nc(OCC(F)(F)F)n2)cc1)C(=O)O [Compound 1401] | 0.01 to 10 nM
19 | COC(=O)[C@H](CNC(=O)C(=O)NC1CCC(C(C)(C)C)CC1)NC(=O)c1ccc(Nc2nc(NC3(c4ccc(Cl)cc4)CC3)nc(OCC(F)(F)F)n2)cc1 (stereo partly drawn) [Compound 1062] | 0.01 to 10 nM
20 | COC(=O)[C@H](CNC(=O)C(=O)N(C)c1ccccc1)NC(=O)c1ccc(Nc2nc(NC3(c4ccc(Cl)cc4)CC3)nc(OCC(F)(F)F)n2)cc1 [Compound 1257] | 0.01 to 10 nM

Same assay, conditions: Hepatitis C virus, Huh-7, 48 h, read-out: Activity (EC50 class), HCV pseudoparticles, Huh7 cells, luciferase 2 days after infection; average of duplicates

Row | SMILES | EC50
21 | O=C(NC[C@H](NC(=O)c1ccc(Nc2nc(NC3(c4ccc(Cl)cc4)CC3)nc(OCC(F)(F)F)n2)cc1)C(=O)O)C(=O)Nc1cccc(OC(F)(F)F)c1 [Compound 3749] | 0.01 to 10 nM
22 | COC(=O)[C@H](CNC(=O)C(=O)Nc1cccc(-c2ccnc(C)n2)c1)NC(=O)c1ccc(Nc2nc(NC3(c4ccc(Cl)cc4)CC3)nc(OCC(F)(F)F)n2)cc1 [Compound 3700] | 0.01 to 10 nM
23 | NC(=O)c1cccc(NC(=O)C(=O)NC[C@H](NC(=O)c2ccc(Nc3nc(NC4(c5ccc(Cl)cc5)CC4)nc(OCC(F)(F)F)n3)cc2)C(=O)Cl)c1 [Compound 3745] | 0.01 to 10 nM
24 | Cc1ccc(NC(=O)C(=O)NCC(C)(C)CNC(=O)c2ccc(Nc3nc(NC4(c5ccc(Cl)cc5)CC4)nc(OCC(F)(F)F)n3)cc2)cc1C [Compound 3799] | 0.01 to 10 nM
25 | COC(=O)[C@H](CNC(=O)C(=O)Nc1cccc(Oc2cccnc2)c1)NC(=O)c1ccc(Nc2nc(NC3(c4ccc(Cl)cc4)CC3)nc(OCC(F)(F)F)n2)cc1 [Compound 3737] | 0.01 to 10 nM
26 | Cc1ccc(NC(=O)C(=O)NCC(C)(C)CNC(=O)c2ccc(Nc3nc(NC4(c5ccc(Cl)cc5)CC4)nc(OCC(F)(F)F)n3)cc2F)c(Cl)c1 [Compound 3664] | 0.01 to 10 nM
27 | O=C(NCC[C@H](NC(=O)c1ccc(Nc2nc(NC3(c4ccc(Cl)cc4)CC3)nc(OCC(F)(F)F)n2)cc1)C(=O)O)C(=O)Nc1cccc(C(=O)Nc2ccccc2)c1 [Compound 3617] | 0.01 to 10 nM

Same assay, conditions: Hepatitis C virus, Huh-7, read-out: Activity (EC50 class), HCV pseudoparticles (genotype 1a, H77C) in Huh7 cells; EC50 expressed as class A/B

Row | SMILES | EC50
28 | O=C(NCc1ccc(F)cc1)C(=O)NCC(O)CNC(=O)c1ccc(Nc2nc(NC3(c4ccc(Cl)cc4)CC3)nc(OCC(F)(F)F)n2)cc1 (stereo not drawn) [Compound 3368] | 0.01 to 10 nM
29 | Cc1nccn1-c1ccc(NC(=O)C(=O)NCC[C@H](NC(=O)c2ccc(Nc3nc(NC4(c5ccc(Cl)cc5)CC4)nc(OCC(F)(F)F)n3)cc2)C(=O)O)cc1 [Compound 3541] | 10 to 1000 nM
30 | COC(=O)[C@H](CCNC(=O)C(=O)Nc1ccc(C(N)=O)cc1)NC(=O)c1ccc(Nc2nc(NC3(c4ccc(Cl)cc4)CC3)nc(OCC(F)(F)F)n2)cc1 [Compound 3116] | 0.01 to 10 nM
31 | CN(CCCNC(=O)c1ccc(Nc2nc(NC3(c4ccc(Cl)cc4)CC3)nc(OCC(F)(F)F)n2)cc1)C(=O)C(=O)Nc1ccc(F)cc1 [Compound 3448] | 0.01 to 10 nM
32 | CC(C)(CNC(=O)c1ccc(Nc2nc(NC3(c4ccc(Cl)cc4)CC3)nc(OCC(F)(F)F)n2)cc1)NC(=O)C(=O)Nc1ccc(F)cc1 [Compound 3418] | 0.01 to 10 nM
33 | O=C(NC1CCCCC1)C(=O)N1CCCC(CNC(=O)c2ccc(Nc3nc(NC4(c5ccc(Cl)cc5)CC4)nc(OCC(F)(F)F)n3)cc2)C1 (stereo not drawn) [Compound 3489] | 0.01 to 10 nM
34 | CCOc1ccc(NC(=O)C(=O)NC[C@H](NC(=O)c2ccc(Nc3nc(NC4(c5ccc(Cl)cc5)CC4)nc(OCC(F)(F)F)n3)cc2)C(=O)OC)cc1 [Compound 3210] | 0.01 to 10 nM
35 | Cn1cnnc1-c1ccc(NC(=O)C(=O)NCCC(NC(=O)c2ccc(Nc3nc(NC4(c5ccc(Cl)cc5)CC4)nc(OCC(F)(F)F)n3)cc2)C(=O)O)cc1 (stereo not drawn) [Compound 3538] | 10 to 1000 nM
36 | O=C(NCCCCNC(=O)c1ccc(Nc2nc(NC3(c4ccc(Cl)cc4)CC3)nc(OCC(F)(F)F)n2)cc1)C(=O)Nc1cccc(F)c1 [Compound 3390] | 0.01 to 10 nM
37 | CC(C)(CNC(=O)C(=O)Nc1ccccc1-n1cccn1)CNC(=O)c1ccc(Nc2nc(NC3(c4ccc(Cl)cc4)CC3)nc(OCC(F)(F)F)n2)cc1 [Compound 3015] | 0.01 to 10 nM
38 | COC(=O)[C@H](CNC(=O)C(=O)Nc1ccc(OCC(F)(F)F)cc1)NC(=O)c1ccc(Nc2nc(NC3(c4ccc(Cl)cc4)CC3)nc(OCC(F)(F)F)n2)cc1 [Compound 3096] | 0.01 to 10 nM
39 | O=C(NCC[C@H](NC(=O)c1ccc(Nc2nc(NC3(c4ccc(Cl)cc4)CC3)nc(OCC(F)(F)F)n2)cc1)C(=O)O)C(=O)Nc1ccc(-n2cncn2)cc1 [Compound 3231] | 0.01 to 10 nM
